{
  "source": "patent US20230138225A1",
  "about": "“PYRAZOLE CARBOXYLATE ESTER COMPOUND AND USE THEREOF” (SHENYANG SINOCHEM AGROCHEMICALS R&D CO., LTD., priority 2020, published 2023)",
  "assay_in_all_cases": "Herbicidal activity, post-emergence stem and leaf spray in greenhouse",
  "format_in_all_cases": "in vivo",
  "settings_in_all_cases": "Post-emergence treatment",
  "key": {"[1]": {"system": "Setaria glauca (L.) Beauv.", "text": "(§1) Seeds of broadleaf weeds (Zinnia elegans Jacq. and Abutilon theophrasti Medic.) or grass weeds (Setaria glauca (L.) Beauv. and Echinochloa crusgalli (L.) Beauv.) were respectively sown in a paper cup having a diameter of 7 cm and containing nutrient soil. After sowing, the seeds were covered with 1 cm of soil, the soil was pressed and watered, and then the seeds were cultivated in a greenhouse according to a conventional method, and stems and leaves were sprayed after 2-3 leaf stage of the weeds.\n(§2) The compounds of the present invention were dissolved in acetone, and then diluted with 0.1% aqueous solution of Tween 80 to form the test liquid. According to the design dose of the test, spray treatment was carried out by track sprayer (Engineer Research Ltd., pressure 1.95 kg/cm^2, volume 500 L/hm^2, track speed 1.48 km/h). The test was repeated for three times. The test material was treated and then placed in an operation hall. The medicinal liquid was naturally dried in the shade, and then was placed in a greenhouse and managed according to the conventional method. The response of the weeds to the drug was visually observed and recorded. After treatment, the state of growth of the respective weeds were visually observed regularly to determine the growth inhibition rate (%) in accordance with the following evaluation standard.\n(§3) Growth inhibition rate (%): 0=no discernible action: 100=all weeds dead or not emerged."}, "[2]": {"system": "Abutilon theophrasti Medic.", "text": "as §1, §2, §3"}, "[3]": {"system": "Zinnia elegans Jacq.", "text": "as §1, §2, §3"}, "[4]": {"settings": "dose 37.5 g a.i./hm^2, Table 3 parallel test"}, "[5]": {"settings": "dose 75 g a.i./hm^2, Table 3 parallel test"}},
  "data": [
    {"compound": "CCn1nc(C(=O)Oc2c(C(=O)c3ccc(S(C)(=O)=O)c(OCC4CC4)c3C)c(C)nn2C)cc1C", "note": "[Compound 1-20]", "values": [
      {"measurement": "growth inhibition rate %", "setting": "[1]; dose 37.5 g a.i./hm^2, Table 2", "value": 65, "unit": "%"},
      {"measurement": "growth inhibition rate %", "setting": "[1]; dose 150 g a.i./hm^2, Table 2", "value": 100, "unit": "%"},
      {"measurement": "growth inhibition rate %", "setting": "[1]; dose 600 g a.i./hm^2, Table 2", "value": 100, "unit": "%"}
    ]},
    {"compound": "C=CCOc1c(S(C)(=O)=O)ccc(C(=O)c2c(C)nn(C)c2OC(=O)c2cc(C)n(CC)n2)c1C", "note": "[Compound 1-26]", "values": [
      {"measurement": "growth inhibition rate %", "setting": "[1]; dose 37.5 g a.i./hm^2, Table 2", "value": 75, "unit": "%"},
      {"measurement": "growth inhibition rate %", "setting": "[1]; dose 150 g a.i./hm^2, Table 2", "value": 100, "unit": "%"},
      {"measurement": "growth inhibition rate %", "setting": "[1]; dose 600 g a.i./hm^2, Table 2", "value": 100, "unit": "%"}
    ]},
    {"compound": "CCn1nc(C(=O)Oc2c(C(=O)c3ccc(S(C)(=O)=O)c(OCCOC)c3C)cnn2CC)cc1C", "note": "[Compound 1-32]", "values": [
      {"measurement": "growth inhibition rate %", "setting": "[2]; [4]", "value": 100, "unit": "%"},
      {"measurement": "growth inhibition rate %", "setting": "[2]; [5]", "value": 100, "unit": "%"},
      {"measurement": "growth inhibition rate %", "setting": "[1]; dose 37.5 g a.i./hm^2, Table 2", "value": 90, "unit": "%"},
      {"measurement": "growth inhibition rate %", "setting": "[1]; [4]", "value": 90, "unit": "%"},
      {"measurement": "growth inhibition rate %", "setting": "[1]; [5]", "value": 100, "unit": "%"},
      {"measurement": "growth inhibition rate %", "setting": "[1]; dose 150 g a.i./hm^2, Table 2", "value": 100, "unit": "%"},
      {"measurement": "growth inhibition rate %", "setting": "[1]; dose 600 g a.i./hm^2, Table 2", "value": 100, "unit": "%"},
      {"measurement": "growth inhibition rate %", "setting": "[3]; [4]", "value": 100, "unit": "%"},
      {"measurement": "growth inhibition rate %", "setting": "[3]; [5]", "value": 100, "unit": "%"}
    ]},
    {"compound": "CCn1nc(C(=O)Oc2c(C(=O)c3ccc(S(C)(=O)=O)c(OCCOC)c3C)c(C)nn2C)cc1C", "note": "[Compound 1-33]", "values": [
      {"measurement": "growth inhibition rate %", "setting": "[1]; dose 37.5 g a.i./hm^2, Table 2", "value": 70, "unit": "%"},
      {"measurement": "growth inhibition rate %", "setting": "[1]; dose 150 g a.i./hm^2, Table 2", "value": 100, "unit": "%"},
      {"measurement": "growth inhibition rate %", "setting": "[1]; dose 600 g a.i./hm^2, Table 2", "value": 100, "unit": "%"}
    ]},
    {"compound": "CCn1nc(C(=O)Oc2c(C(=O)c3ccc(S(C)(=O)=O)c(OCCOC)c3C)c(C)nn2C(C)C)cc1C", "note": "[Compound 1-34]", "values": [
      {"measurement": "growth inhibition rate %", "setting": "[1]; dose 37.5 g a.i./hm^2, Table 2", "value": 65, "unit": "%"},
      {"measurement": "growth inhibition rate %", "setting": "[1]; dose 150 g a.i./hm^2, Table 2", "value": 100, "unit": "%"},
      {"measurement": "growth inhibition rate %", "setting": "[1]; dose 600 g a.i./hm^2, Table 2", "value": 100, "unit": "%"}
    ]},
    {"compound": "CCc1nn(C)c(OC(=O)c2cc(C)n(CC)n2)c1C(=O)c1ccc(S(C)(=O)=O)c(OCCOC)c1C", "note": "[Compound 1-36]", "values": [
      {"measurement": "growth inhibition rate %", "setting": "[1]; dose 37.5 g a.i./hm^2, Table 2", "value": 70, "unit": "%"},
      {"measurement": "growth inhibition rate %", "setting": "[1]; dose 150 g a.i./hm^2, Table 2", "value": 100, "unit": "%"},
      {"measurement": "growth inhibition rate %", "setting": "[1]; dose 600 g a.i./hm^2, Table 2", "value": 100, "unit": "%"}
    ]},
    {"compound": "CCn1nc(C(=O)Oc2c(C(=O)c3ccc(S(C)(=O)=O)c(OCCOC)c3C)c(C)nn2CC)cc1C", "note": "[Compound 1-37]", "values": [
      {"measurement": "growth inhibition rate %", "setting": "[1]; dose 37.5 g a.i./hm^2, Table 2", "value": 100, "unit": "%"},
      {"measurement": "growth inhibition rate %", "setting": "[1]; dose 150 g a.i./hm^2, Table 2", "value": 100, "unit": "%"},
      {"measurement": "growth inhibition rate %", "setting": "[1]; dose 600 g a.i./hm^2, Table 2", "value": 100, "unit": "%"}
    ]},
    {"compound": "CCOCCOc1c(S(C)(=O)=O)ccc(C(=O)c2c(C)nn(C)c2OC(=O)c2cc(C)n(CC)n2)c1C", "note": "[Compound 1-44]", "values": [
      {"measurement": "growth inhibition rate %", "setting": "[1]; dose 37.5 g a.i./hm^2, Table 2", "value": 70, "unit": "%"},
      {"measurement": "growth inhibition rate %", "setting": "[1]; dose 150 g a.i./hm^2, Table 2", "value": 100, "unit": "%"},
      {"measurement": "growth inhibition rate %", "setting": "[1]; dose 600 g a.i./hm^2, Table 2", "value": 100, "unit": "%"}
    ]},
    {"compound": "CCn1nc(C)cc1C(=O)Oc1c(C(=O)c2ccc(S(C)(=O)=O)c(OCCOC)c2C)cnn1CC", "note": "[Compound 1-139]", "values": [
      {"measurement": "growth inhibition rate %", "setting": "[1]; dose 37.5 g a.i./hm^2, Table 2", "value": 80, "unit": "%"},
      {"measurement": "growth inhibition rate %", "setting": "[1]; dose 150 g a.i./hm^2, Table 2", "value": 100, "unit": "%"},
      {"measurement": "growth inhibition rate %", "setting": "[1]; dose 600 g a.i./hm^2, Table 2", "value": 100, "unit": "%"}
    ]},
    {"compound": "CCn1nc(C)cc1C(=O)Oc1c(C(=O)c2ccc(S(C)(=O)=O)c(OCCOC)c2C)c(C)nn1C", "note": "[Compound 1-140]", "values": [
      {"measurement": "growth inhibition rate %", "setting": "[1]; dose 37.5 g a.i./hm^2, Table 2", "value": 80, "unit": "%"},
      {"measurement": "growth inhibition rate %", "setting": "[1]; dose 150 g a.i./hm^2, Table 2", "value": 100, "unit": "%"},
      {"measurement": "growth inhibition rate %", "setting": "[1]; dose 600 g a.i./hm^2, Table 2", "value": 100, "unit": "%"}
    ]},
    {"compound": "CCn1ncc(C(=O)c2ccc(S(C)(=O)=O)c(COCC(F)(F)F)c2Cl)c1OC(=O)c1cn(C)nc1C", "note": "[KC3, fenpyrazone, reference compound]", "values": [
      {"measurement": "growth inhibition rate %", "setting": "[2]; [4]", "value": 30, "unit": "%"},
      {"measurement": "growth inhibition rate %", "setting": "[2]; [5]", "value": 95, "unit": "%"},
      {"measurement": "growth inhibition rate %", "setting": "[1]; [4]", "value": 60, "unit": "%"},
      {"measurement": "growth inhibition rate %", "setting": "[1]; [5]", "value": 70, "unit": "%"},
      {"measurement": "growth inhibition rate %", "setting": "[3]; [4]", "value": 40, "unit": "%"},
      {"measurement": "growth inhibition rate %", "setting": "[3]; [5]", "value": 50, "unit": "%"}
    ]}
  ]
}
